Molecular target: T1, nanoKAZ luciferase (Oplophorus gracilirostris, UniProt Q9GV45, A31E/A60N/A81I/F95D/I117V/K70R/L54V/L99Q/M102K/N193R/P142E/Q151K/Q38R/Q45L/V71I/Y165I)
T1 construct: luciferase catalytic domain (nanoKAZ, 19 kDa) from the Oplophorus-derived luciferase; host or cells: cell-free: 1-Step Human Coupled IVT Kit, pT7CFE1-based vector
Test: In vitro bioluminescence screening of imidazo[1,2-a]pyrazin-3(7H)-ones with nanoKAZ expressed in vitro (96-well luminometer, 2 h kinetic)
Type: biochemical
Conditions: furimazine = 1
Procedure: General protocol for the generation of solutions of imidazo[1,2-a]pyrazin-3(7H)-one Q by acidic hydrolysis of imidazo[1,2-a]pyrazin-3-yl acetate derivatives P. The considered acetate P (1 mg) was dissolved in DMSO (0.2 mL) and then diluted by adding a solution of acidic ethanol (0.3 ml) made from the addition of 37% hydrochloric acid (100 μl) on 100% ethanol (12 mL). This 0.5 mL solution was incubated at 50° C. for 2 hours to give a stock solution which was then stored at −80° C. […] Nota: these conditions are only adapted to the hydrolysis of the protecting group (as defined above) of the oxygen on position 2 of the imidazo[1,2-a]pyrazine ring system and not to the hydrolysis of any additional acetyl groups eventually present elsewhere on the substrate of this reaction.
The representative bioluminescence curves shown in the FIG. 2 provided an assessment for furimazine (Q-1), 8-benzyl-2-(furan-2-ylmethyl)-6-(4-hydroxyphenyl)imidazo[1,2-a]pyrazin-3 (7/1)-one (Q-80), 8-(2-fluorobenzyl)-2-(furan-2-ylmethyl)-6-phenylimidazo[1,2-a]pyrazin-3(7H)-one (Q-84), and 8-(2-fluorobenzyl)-2-((5-methylfuran-2-yl)methyl)-6-phenylimidazo[1,2-a]pyrazin-3(7H)-one (Q-85) was obtained using a luciferase expressed in vitro as described in the following. The nanoKAZ DNA template was cloned into Thermo Scientific pT7CFE1-based vector and nanoKAZ was expressed using ThermoFisher Scientific 1-Step Human Coupled IVT Kit—DNA (ref. 88881) according to the manufacturer instructions. The resulting reaction mix was diluted 400 times in buffer (DPBS (Gibco)+0.1% (v/v) Tween 20) and conserved at −80° C. The screening of the imidazo[1,2-a]pyrazin-3(7H)-ones was performed in 96 well plates using 50 μL/well of a 1/20 dilution in DPBS (Gibco)+0.1% (v/v) Tween 20 of the nanoKAZ solution.
To illustrate the bioluminescence properties improvement achieved for many of the imidazo[1,2-a]pyrazin-3(7H)-ones described here, four values are provided in Table 1: maximum intensity (V1), signal half-life (V2), area under the curve for ten minutes (V3), and area under the curve for two hours (V4), normalized using furimazine (Q-1) as a reference.
The bioluminescence properties of the tested compounds are considered to be improved when at least one of the values V1-V4 is above 1, and when none of the V1-V4 values is 0.05 or below.
By following the hydrolysis protocol described above, the following imidazo[1,2-a]pyrazin-3(7H)-ones luciferins Q were made in situ from the corresponding O-protected imidazo[1,2-a]pyrazines P and evaluated for their bioluminescence properties (maximum intensity (V1), signal half-life (V2), area under the curve for […], normalized using furimazine (Q-1) as a reference): […]

[1] = second table, luciferins made in situ from O-protected P

T1 sequence (Q9GV45 other isoform, or with tags, fused parts or gaps with the stated changes): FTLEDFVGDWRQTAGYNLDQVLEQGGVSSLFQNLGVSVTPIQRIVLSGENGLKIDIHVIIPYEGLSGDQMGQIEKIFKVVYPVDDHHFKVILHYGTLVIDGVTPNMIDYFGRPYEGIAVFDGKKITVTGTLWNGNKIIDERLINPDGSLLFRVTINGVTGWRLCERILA

Structure (SMILES)	V1: maximum intensity, normalized using furimazine (Q-1) as a reference (Table 1)	V3: area under the curve for ten minutes, normalized using furimazine (Q-1) as a reference (Table 1)	V4: area under the curve for two hours, normalized using furimazine (Q-1) as a reference (Table 1)	V3: area under the curve for 2 hours, normalized using furimazine (Q-1) as a reference (second table)	V4: area under the curve for ten minutes, normalized using furimazine (Q-1) as a reference (second table)	V1: maximum intensity, normalized using furimazine (Q-1) as a reference [1]
O=c1c(Cc2ccco2)nc2c(Cc3ccccc3)[nH]c(-c3ccc(O)cc3)cn1-2 [Q-80, 8-benzyl-2-(furan-2-ylmethyl)-6-(4-hydroxyphenyl)imidazo[1,2-a]pyrazin-3(7H)-one, reference compound]	3.06	0.79	0.14			
O=c1c(Cc2ccco2)nc2c(Cc3cccc(F)c3)[nH]c(-c3ccccc3)cn1-2 [Q-81, 8-(3-fluorobenzyl)-2-(furan-2-ylmethyl)-6-phenylimidazo[1,2-a]pyrazin-3(7H)-one]	0.82	0.92	1.31			
Cc1cccc(Cc2nc3c(Cc4ccccc4F)[nH]c(-c4ccccc4)cn-3c2=O)c1 [Q-82, 8-(2-fluorobenzyl)-2-(3-methylbenzyl)-6-phenylimidazo[1,2-a]pyrazin-3(7H)-one]	1.36	1.38	0.84			
COc1cccc(Cc2nc3c(Cc4ccccc4F)[nH]c(-c4ccccc4)cn-3c2=O)c1 [Q-83, 8-(2-fluorobenzyl)-2-(3-methoxybenzyl)-6-phenylimidazo[1,2-a]pyrazin-3(7H)-one]	1.46	1.49	1.12			
O=c1c(Cc2ccco2)nc2c(Cc3ccccc3F)[nH]c(-c3ccccc3)cn1-2 [Q-84, 8-(2-fluorobenzyl)-2-(furan-2-ylmethyl)-6-phenylimidazo[1,2-a]pyrazin-3(7H)-one]	0.84	0.91	1.18			
Cc1ccc(Cc2nc3c(Cc4ccccc4F)[nH]c(-c4ccccc4)cn-3c2=O)o1 [Q-85, 8-(2-fluorobenzyl)-2-((5-methylfuran-2-yl)methyl)-6-phenylimidazo[1,2-a]pyrazin-3(7H)-one]	2.3	2.4	1.81			
CCc1ccc(Cc2nc3c(Cc4ccccc4F)[nH]c(-c4ccccc4)cn-3c2=O)o1 [Q-96, 2-((5-ethylfuran-2-yl)methyl)-8-(2-fluorobenzyl)-6-phenylimidazo[1,2-a]pyrazin-3(7H)-one]	2.51	2.68	1.98			
Cc1ccc(Cc2nc3c(Cc4cccc(F)c4)[nH]c(-c4ccccc4)cn-3c2=O)o1 [Q-97, 8-(3-fluorobenzyl)-2-((5-methylfuran-2-yl)methyl)-6-phenylimidazo[1,2-a]pyrazin-3(7H)-one]	2.04	2.20	2.04			
Cc1ccc(Cc2nc3c(Cc4ccccc4Cl)[nH]c(-c4ccccc4)cn-3c2=O)o1 [Q-98, 8-(2-chlorobenzyl)-2-((5-methylfuran-2-yl)methyl)-6-phenylimidazo[1,2-a]pyrazin-3(7H)-one]	1.18	1.28	1.20			
CCc1ccc(Cc2nc3c(Cc4cccc(F)c4)[nH]c(-c4ccccc4)cn-3c2=O)o1 [Q-99, 2-((5-ethylfuran-2-yl)methyl)-8-(3-fluorobenzyl)-6-phenylimidazo[1,2-a]pyrazin-3(7H)-one]	1.99	2.13	2.08			
Cc1cccc(Cc2nc3c(Cc4cccc(F)c4)[nH]c(-c4ccccc4)cn-3c2=O)c1 [Q-100, 8-(3-fluorobenzyl)-2-(3-methylbenzyl)-6-phenylimidazo[1,2-a]pyrazin-3(7H)-one]	1.25	1.33	1.04			
Cc1ccc(Cc2nc3c(Cc4cccc(F)c4)[nH]c(-c4ccccc4F)cn-3c2=O)o1 [Q-105, 8-(3-fluorobenzyl)-6-(2-fluorophenyl)-2-((5-methylfuran-2-yl)methyl)imidazo[1,2-a]pyrazin-3(7H)-one]				2.01	1.72	2.04
O=c1c(Cc2ccco2)nc2c(Cc3cccc(F)c3F)[nH]c(-c3ccccc3)cn1-2 [Q-107, 8-(2,3-difluorobenzyl)-2-(furan-2-ylmethyl)-6-phenylimidazo[1,2-a]pyrazin-3(7H)-one]				1.04	1.27	1.03
Cc1ccc(Cc2nc3c(Cc4cccc(F)c4F)[nH]c(-c4ccccc4)cn-3c2=O)o1 [Q-108, 8-(2,3-difluorobenzyl)-2-((5-methylfuran-2-yl)methyl)-6-phenylimidazo[1,2-a]pyrazin-3(7H)-one]				3.09	2.1	3.15
O=c1c(Cc2ccccc2)nc2c(Cc3cccc(F)c3F)[nH]c(-c3ccccc3)cn1-2 [Q-117, 2-benzyl-8-(2,3-difluorobenzyl)-6-phenylimidazo[1,2-a]pyrazin-3(7H)-one]				1.94	0.7	2.31
Cc1ccc(Cc2nc3c(Cc4c(F)cccc4F)[nH]c(-c4ccccc4)cn-3c2=O)o1 [Q-121, 8-(2,6-difluorobenzyl)-2-((5-methylfuran-2-yl)methyl)-6-phenylimidazo[1,2-a]pyrazin-3(7H)-one]				1.43	1.37	1.41
Cc1cc(Cc2nc3c(Cc4cccc(F)c4F)[nH]c(-c4ccccc4)cn-3c2=O)oc1C [Q-124, 8-(2,3-difluorobenzyl)-2-((4,5-dimethylfuran-2-yl)methyl)-6-phenylimidazo[1,2-a]pyrazin-3(7H)-one]				2.29	1.03	2.43
CCc1ccc(Cc2nc3c(Cc4cccc(F)c4F)[nH]c(-c4ccccc4)cn-3c2=O)o1 [Q-127, 8-(2,3-difluorobenzyl)-2-((5-ethylfuran-2-yl)methyl)-6-phenylimidazo[1,2-a]pyrazin-3(7H)-one]				2.69	1.55	2.81
CCc1ccc(Cc2nc3c(Cc4c(F)cccc4F)[nH]c(-c4ccccc4)cn-3c2=O)o1 [Q-129, 8-(2,6-difluorobenzyl)-2-((5-ethylfuran-2-yl)methyl)-6-phenylimidazo[1,2-a]pyrazin-3(7H)-one]				1.37	1.32	1.41
